ChEMBL document CHEMBL1142001, “Novel and orally bioavailable inducible nitric oxide synthase inhibitors: synthesis and evaluation of optically active 4,5-dialkyl-2-iminoselenazolidine derivatives” (Bioorg Med Chem Lett, 2005)

Experiments:
Nitric oxide synthase 1 = Nitric oxide synthase 1 (Homo sapiens, UniProt P29475); test: Inhibitory concentration against neuronal […]
[1] = biological target: Nitric oxide synthase, inducible (Homo sapiens, UniProt P35228); test: Inhibitory concentration against inducible […]
Chain of Nitric oxide synthase, inducible (P35228 whole entry): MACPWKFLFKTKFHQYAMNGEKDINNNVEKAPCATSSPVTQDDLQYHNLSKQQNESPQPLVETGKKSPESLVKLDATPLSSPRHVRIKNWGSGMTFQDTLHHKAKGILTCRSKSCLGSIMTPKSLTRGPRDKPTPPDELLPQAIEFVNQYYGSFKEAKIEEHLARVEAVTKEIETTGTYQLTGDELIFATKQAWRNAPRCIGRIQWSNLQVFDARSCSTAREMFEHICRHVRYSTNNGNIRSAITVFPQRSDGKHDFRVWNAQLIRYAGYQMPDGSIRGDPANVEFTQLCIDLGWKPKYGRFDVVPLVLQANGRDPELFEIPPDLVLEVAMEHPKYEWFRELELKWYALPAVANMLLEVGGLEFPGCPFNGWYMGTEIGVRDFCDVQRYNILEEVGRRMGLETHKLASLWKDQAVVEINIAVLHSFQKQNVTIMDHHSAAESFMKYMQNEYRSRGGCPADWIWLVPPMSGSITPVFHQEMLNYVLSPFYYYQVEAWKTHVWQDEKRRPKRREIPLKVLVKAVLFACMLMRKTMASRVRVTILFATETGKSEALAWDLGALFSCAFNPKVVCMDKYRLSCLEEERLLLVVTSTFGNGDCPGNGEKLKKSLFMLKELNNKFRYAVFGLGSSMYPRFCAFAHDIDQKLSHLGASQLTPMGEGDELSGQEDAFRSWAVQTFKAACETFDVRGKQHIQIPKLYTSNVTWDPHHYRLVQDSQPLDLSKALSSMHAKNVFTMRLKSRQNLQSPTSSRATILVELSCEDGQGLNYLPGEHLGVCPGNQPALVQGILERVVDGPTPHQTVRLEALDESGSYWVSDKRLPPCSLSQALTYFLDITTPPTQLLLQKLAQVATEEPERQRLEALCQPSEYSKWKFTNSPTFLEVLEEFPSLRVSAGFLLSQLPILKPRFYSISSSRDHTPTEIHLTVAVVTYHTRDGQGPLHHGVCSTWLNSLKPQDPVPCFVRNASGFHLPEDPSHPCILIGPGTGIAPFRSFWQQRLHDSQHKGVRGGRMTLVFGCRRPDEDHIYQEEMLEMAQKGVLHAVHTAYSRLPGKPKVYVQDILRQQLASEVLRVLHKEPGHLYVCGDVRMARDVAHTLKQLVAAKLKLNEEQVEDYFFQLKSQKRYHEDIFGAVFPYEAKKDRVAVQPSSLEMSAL

[2] = Clearance rate (0.3 mg/kg) on intravenous administration to rats; type: ADME, organism-based; settings: rat, in vivo
[3] = Tmax of compound (0.3 mg/kg) on oral administration to rats; type: ADME, organism-based; settings: rat, in vivo
Mus musculus = test: Inhibitory dose (p.o.) tested against plasma nitrite/nitrate levels in LPS-treated mice; type: functional; settings: po, read-out: ID50 (the source's name)
[4] = Half life value of compound (0.3 mg/kg) on intravenous administration to […]; type: ADME, organism-based; settings: rat, in vivo
[5] = Cmax of compound (0.3 mg/kg) on oral administration to rats; type: ADME, organism-based; set-up: dose 0.3 mg/kg, route oral; settings: rat, in vivo
[6] = Area under the concentration time curve value of compound was determined in rats after oral dosage of 0.3 mg/kg; type: ADME, organism-based; set-up: dose 0.3 mg/kg, route oral; settings: rat, in vivo
[7] = Area under concentration time curve value in rat was determined at a intravenous dosage of 0.3 mg/kg; type: ADME, organism-based; set-up: dose 0.3 mg/kg, route intravenous; settings: in vivo
[8] = Oral bioavailability of compound (0.3 mg/kg) on oral administration to rats; type: ADME, organism-based; settings: rat, in vivo, read-out: Bioavailabiility
[9] = Half life value of compound (0.3 mg/kg) on oral administration to rats; type: ADME, organism-based; settings: rat, in vivo

Chain of Nitric oxide synthase 1 (P29475 whole entry): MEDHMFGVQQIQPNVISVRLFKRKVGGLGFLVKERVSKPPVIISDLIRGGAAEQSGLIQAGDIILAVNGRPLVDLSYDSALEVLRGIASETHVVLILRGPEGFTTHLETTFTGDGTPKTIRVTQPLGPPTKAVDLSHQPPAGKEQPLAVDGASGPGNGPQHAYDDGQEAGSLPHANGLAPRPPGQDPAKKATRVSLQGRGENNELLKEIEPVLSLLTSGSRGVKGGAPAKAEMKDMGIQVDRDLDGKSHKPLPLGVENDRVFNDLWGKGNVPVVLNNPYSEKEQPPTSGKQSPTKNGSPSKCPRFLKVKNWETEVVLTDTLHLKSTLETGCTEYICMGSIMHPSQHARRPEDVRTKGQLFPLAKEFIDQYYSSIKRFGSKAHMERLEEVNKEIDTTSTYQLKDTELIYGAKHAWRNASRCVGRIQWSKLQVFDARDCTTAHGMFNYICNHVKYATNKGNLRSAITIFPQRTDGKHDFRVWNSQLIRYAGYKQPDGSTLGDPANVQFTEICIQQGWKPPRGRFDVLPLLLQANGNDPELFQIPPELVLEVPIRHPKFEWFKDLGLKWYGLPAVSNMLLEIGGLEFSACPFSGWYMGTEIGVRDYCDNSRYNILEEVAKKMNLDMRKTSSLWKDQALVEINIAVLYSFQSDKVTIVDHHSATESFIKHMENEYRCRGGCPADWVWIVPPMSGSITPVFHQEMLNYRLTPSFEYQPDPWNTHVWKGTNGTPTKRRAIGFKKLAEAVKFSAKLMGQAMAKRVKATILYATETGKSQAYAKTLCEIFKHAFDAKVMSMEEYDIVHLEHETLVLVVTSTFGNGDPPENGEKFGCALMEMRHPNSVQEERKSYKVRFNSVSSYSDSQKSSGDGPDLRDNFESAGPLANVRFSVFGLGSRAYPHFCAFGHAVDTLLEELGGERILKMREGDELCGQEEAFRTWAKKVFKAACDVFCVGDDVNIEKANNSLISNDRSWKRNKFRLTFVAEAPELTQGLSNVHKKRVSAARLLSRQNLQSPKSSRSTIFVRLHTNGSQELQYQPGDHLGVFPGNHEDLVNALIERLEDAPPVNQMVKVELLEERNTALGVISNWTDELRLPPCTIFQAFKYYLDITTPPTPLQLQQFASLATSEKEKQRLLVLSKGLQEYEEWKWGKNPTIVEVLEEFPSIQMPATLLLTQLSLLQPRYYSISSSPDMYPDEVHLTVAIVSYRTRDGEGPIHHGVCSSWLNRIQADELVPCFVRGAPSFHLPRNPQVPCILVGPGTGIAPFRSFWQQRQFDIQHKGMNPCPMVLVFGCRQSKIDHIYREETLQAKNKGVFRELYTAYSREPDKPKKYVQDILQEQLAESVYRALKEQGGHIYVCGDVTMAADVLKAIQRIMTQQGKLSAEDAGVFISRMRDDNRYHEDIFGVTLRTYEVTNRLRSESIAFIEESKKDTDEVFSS

SMILES: CC[C@@H]1[Se]C(N)=N[C@@H]1C
- IC50 (Nitric oxide synthase 1): 1300 nM
- IC50 [1]: 66 nM

SMILES: CC[C@@H]1N=C(N)[Se][C@H]1C
- IC50 (Nitric oxide synthase 1): 280 nM
- IC50 [1]: 21 nM

SMILES: CC[C@H]1N=C(N)[Se][C@@H]1C
- IC50 (Nitric oxide synthase 1): 92 nM
- IC50 [1]: 9.4 nM

SMILES: CC[C@H]1N=C(N)[Se][C@H]1C
- IC50 (Nitric oxide synthase 1): 280 nM
- IC50 [1]: 21 nM

SMILES: CC[C@@H]1N=C(N)[Se][C@@H]1C
- IC50 (Nitric oxide synthase 1): 740 nM
- IC50 [1]: 80 nM

SMILES: CC[C@@H]1[Se]C(N)=N[C@H]1C
- IC50 (Nitric oxide synthase 1): 350 nM
- IC50 [1]: 34 nM

SMILES: CC[C@H]1[Se]C(N)=N[C@H]1C
- IC50 (Nitric oxide synthase 1): 6900 nM
- IC50 [1]: 340 nM

SMILES: CC[C@H]1[Se]C(N)=N[C@@H]1C
- IC50 (Nitric oxide synthase 1): 790 nM
- IC50 [1]: 9.3 nM
- clearance [2]: 55.5 mL/min/kg
- Tmax [3]: 30 min
- ED50 (Mus musculus): 0.3 mg/kg
- half-life [4]: 57 min
- Cmax [5]: 45 ng/mL
- AUC [6]: 45 ng·h/mL
- AUC [7]: 117 ng·h/mL
- bioavailability [8]: 73%
- half-life [9]: 72 min

SMILES: CC[C@H]1SC(N)=N[C@@H]1C
- IC50 (Nitric oxide synthase 1): 380 nM
- IC50 [1]: 6.6 nM
